Values joined by “and” are separate entries in the source; they are usually repeats but may differ in a detail not shown here. Equal values may be shown once.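 Assay format: 96-well plates, 48-hour exposure. At the TGI there is no net growth.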
Experiments:
Experiment in all cases: DTP human tumour cell line panel, 48 h
NCI-H226 lung = tested on: NCI-H226 lung
HL-60(TB) leukemia = tested on: HL-60(TB) leukemia
A498 renal = tested on: A498 renal
SN12C renal = tested on: SN12C renal
U251 CNS = tested on: U251 CNS
UO-31 renal = tested on: UO-31 renal
NCI-H522 lung = tested on: NCI-H522 lung
MDA-MB-435 = tested on: MDA-MB-435
RPMI-8226 leukemia = tested on: RPMI-8226 leukemia
SNB-19 CNS = tested on: SNB-19 CNS
MDA-N = tested on: MDA-N
LOX IMVI melanoma = tested on: LOX IMVI melanoma
COLO 205 colon = tested on: COLO 205 colon
SK-MEL-5 melanoma = tested on: SK-MEL-5 melanoma
MDA-MB-231 breast = tested on: MDA-MB-231 breast

| Structure (SMILES) | TGI (NCI-H226 lung) [µM] | TGI (HL-60(TB) leukemia) [µM] | TGI (A498 renal) [µM] | TGI (SN12C renal) [µM] | TGI (U251 CNS) [µM] | TGI (UO-31 renal) [µM] | TGI (NCI-H522 lung) [µM] | TGI (MDA-MB-435) [µM] | TGI (RPMI-8226 leukemia) [µM] | TGI (SNB-19 CNS) [µM] | TGI (MDA-N) | TGI (LOX IMVI melanoma) [µM] | TGI (COLO 205 colon) [µM] | TGI (SK-MEL-5 melanoma) [µM] | TGI (MDA-MB-231 breast) [µM] |
| --- | --- | --- | --- | --- | --- | --- | --- | --- | --- | --- | --- | --- | --- | --- | --- |
| COC(=O)C1([C@@H]2C[C@@H](O)[C@]3(C)CC/C=C(\C)CCC[C@H](C)[C@H](O)[C@@H]2O3)CC1 | 69.2 | > 100 | > 100 | > 100 | > 100 | 60.3 | > 100 | > 100 | > 100 | > 100 | > 100 µM | > 100 | > 100 | > 100 | > 100 |
| N#Cc1c(C#N)c(-c2cccc([N+](=O)[O-])c2)n(-c2ccccc2)c1N | 86.1 | > 100 | > 100 | > 100 | > 100 | > 100 | > 100 | > 100 | > 100 | > 100 | > 100 µM | > 100 | > 100 | > 100 | > 100 |
| c1ccc(N/N=C2\CC(c3ccccc3)Oc3ccccc32)cc1 (centres undefined) | > 100 | > 100 | > 100 | > 100 | > 100 | > 100 | 53.6 | > 100 | – | > 100 | > 100 µM | > 100 | > 100 | > 100 | > 100 |
| CN(CCc1ccc(Br)cc1)CCN1CCCCC1 | > 100 | – | 63.2 | > 100 | > 100 | > 100 | 51.7 | 95.3 | > 100 | > 100 | 88 µM | 94.2 | 32.4 | 28.2 | > 100 |
| O=c1c2cccnc2[nH]c2ccc3scnc3c12 | > 10 | > 10 | > 10 | > 10 | > 10 | – | > 10 | > 10 | > 10 | > 10 | > 10 µM | > 10 | > 10 | > 10 | > 10 |
| Cc1cc(Cl)nc(NC(=O)CSc2ccc(Cl)cc2)n1 | > 100 | > 100 | > 100 | > 100 | > 100 | > 100 | > 100 | > 100 | > 100 | > 100 | > 100 µM | > 100 | – | > 100 | > 100 |
| Cc1c(O)c(OC2OC(CO)C(O)C(O)C2O)cc2c1CC[C@@H]1C2(C)C(=O)C[C@]2(C)[C@@H]([C@@](C)(O)C(O)/C=C/C(C)(C)O)[C@H](O)C[C@@]12C (some centres undefined) | > 100 | > 100 | > 100 | > 100 | > 100 | > 100 | > 100 | > 100 | – | > 100 | > 100 µM | > 100 | > 100 | > 100 | > 100 |
| CC1=CC(C)C(C)N(CCNC(=O)Nc2ccccc2)c2ccccc21 (centres undefined) | 72.9 | – | 66 | > 100 | – | 98.6 | 40.2 | 75.1 | 51.8 | 85.2 | > 100 µM | 24.3 | 32.6 | 27.8 | 31.1 |
| O=C1CC2[C@@H](N3CCCC3)CCC(N1Cc1ccccc1)C2(O)O (some centres undefined) | > 100 | > 100 | > 100 | > 100 | > 100 | > 100 | > 100 | > 100 | – | > 100 | > 100 µM | > 100 | > 100 | > 100 | > 100 |
| Cc1nnc(Nc2ccc(Cl)cc2)o1 | > 10 | > 10 | > 10 | > 10 | > 10 | > 10 | > 10 | > 10 | – | > 10 | > 10 µM | > 10 | > 10 | > 10 | > 10 |
| O=C(Sc1c(-c2ccccc2)c(=O)n(-c2ccccc2)c(=S)n1-c1ccccc1)c1ccc(Cl)cc1 | > 100 | > 100 | > 100 | > 100 | > 100 | – | > 100 | > 100 | – | > 100 | > 100 µM | > 100 | > 100 | – | > 100 |
| CCC1(O)CC(OC2CC(N(C)C)C(OC3CC(O)C(OC4OC(C)C(=O)C=C4N)C(C)O3)C(C)O2)c2c(O)c3c(c(O)c2C1C(=O)OC)C(=O)c1cccc(O)c1C3=O (centres undefined) | 0.0806 | 0.108 | 0.0129 | 1.13 | 1.08 | – | 0.203 | 0.107 | 0.0858 | 0.976 | 0.118 µM and 0.012 µM | 0.613 | 0.116 | 0.0659 | 0.296 |
| COC(=O)c1cc(C#N)[nH]c1-c1ccsc1 | > 100 | 48.7 | > 100 | > 100 | > 100 | > 100 | > 100 | > 100 | > 100 | – | > 100 µM | > 100 | > 100 | > 100 | > 100 |
| COC(=O)c1ccccc1C1CN=NC12Cc1c(C)cc(C)cc1C2=O (centres undefined) | > 100 | > 100 | > 100 | > 100 | > 100 | > 100 | > 100 | > 100 | – | > 100 | > 100 µM | > 100 | > 100 | > 100 | > 100 |
| C=CCNC1=C2C[C@@H](C)C[C@@H](OC)[C@H](OC(=O)CN(C)C)[C@H](C)/C=C(\C)[C@@H](OC(N)=O)[C@H](OC)/C=C\C=C(/C)C(=O)NC(=CC1=O)C2=O | – | 13.7 | 19.4 | 17.7 | 19.7 | 24.1 | 18.3 | 13.7 | > 48.2 | 20.8 | 13.3 µM | 8.19 | 1.64 | 14.6 | 10.5 |

— PubChem BioAssay (NCI)
